Key:
[1] = tested on: germline ε promoter (A5T4 reporter line); assay: Retinoids contacted with IL-4 stimulated A5T4 reporter cells, inhibition of germline ε transcription; type: cell-based, human; conditions: 0.03 μM, 0.3 μM, 3 μM and 30 μM, FIG. 12
Method: IL-4 stimulated A5T4 reporter cells were contacted with varying concentrations of retinoids a-tRA, 13-cRA and 9-cRA (0.03 μM, 0.3 μM, 3 μM and 30 μM) as assessed for inhibition of germline ε transcription. DMSO and a compound known to inhibit germline ε transcription were tested as controls.

germline ε transcription = conditions: in vitro assays, literature; cited from earlier work
IgE production = conditions: in vitro assays, literature; cited from earlier work
human RXR-β (hRXR-β) = molecular target: T1, human RXR-β (hRXR-β) (Homo sapiens, UniProt P28702); assay: β-galactosidase yeast two-hybrid (YTH) interaction assay; type: binding
T1 construct: expressed in transfected cells; prey cDNA from a library of the A5T4 reporter cell line (BJAB B-cells)
T1 sequence (P28702 1-533): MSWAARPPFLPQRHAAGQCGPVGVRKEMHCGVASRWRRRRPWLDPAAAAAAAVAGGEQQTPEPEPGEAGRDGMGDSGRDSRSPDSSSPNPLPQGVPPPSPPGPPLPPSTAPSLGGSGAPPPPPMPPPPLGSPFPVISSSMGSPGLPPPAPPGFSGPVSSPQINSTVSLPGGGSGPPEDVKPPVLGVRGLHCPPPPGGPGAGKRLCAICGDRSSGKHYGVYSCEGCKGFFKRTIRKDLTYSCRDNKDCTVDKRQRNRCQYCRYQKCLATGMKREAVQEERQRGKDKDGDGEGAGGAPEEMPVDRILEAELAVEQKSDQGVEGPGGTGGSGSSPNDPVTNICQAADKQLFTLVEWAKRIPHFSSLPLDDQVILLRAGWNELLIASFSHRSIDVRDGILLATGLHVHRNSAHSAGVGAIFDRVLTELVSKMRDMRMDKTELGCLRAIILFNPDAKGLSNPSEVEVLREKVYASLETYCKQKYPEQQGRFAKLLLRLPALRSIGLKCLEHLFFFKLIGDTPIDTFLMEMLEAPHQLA
Method: Potential binding partners for peptide CL06wt were identified in a β-galactosidase yeast two-hybrid (YTH) assay using peptide CL06wt as bait and a cDNA library constructed from the A5T4 reporter cell line as prey. Binding was assessed by β-galactosidase quantification using BetaFluor (Novagen) as a substrate. A negative interaction control (no cDNA fused downstream of the GAL4 activation domain sequence) was also run. A general outline of the YTH assay is illustrated in FIG. 5A. Following clustering, filtering to remove non-specific bait hits (e.g., GFP and BFP), singletons and clusters recognized by 10 or more cDNA baits (based upon historical YTH assays), and prioritization, four prey clones were identified as hits, designated CL06-nonstim-7, CL06-stim-14, CL06-stim-15 and CL06-stim-2.
The interaction of CL06wt peptide and its mutants with the clones identified as potential targets for the peptide CL06wt was then quantified in a β-galactosidase YTH assay. The YTH assay was performed in the manner described above. A general outline of this YTH assay is illustrated in FIG. 5B. […]
The interaction of these IOF and LOF mutants with different polypeptides encoded by the clones CL06-nonstim-7, CL06-stim-14, CL06-stim-15 and CL06-stim-2 were quantified using the YTH assay described above. […]

[2] = tested on: IL-4 inducible germline ε promoter (A5T4 reporter cell line); assay: A5T4 reporter line screening assay: IL-4 induced germline ε promoter driving HBEGF2a/GFP reporter, peptide expressed retrovirally as BFP fusion, FACS; type: cell-based, human; conditions: mutants categorised relative to CL06wt
Description: Peptide CL06wt was identified by screening a retroviral library of random peptide 20-mers for the ability to inhibit IL-4 induced germline ε transcription using the HBEGF2a/diphtheria dual reporter phenotypic screening system described in WO 01/31232. To construct the random library, A5T4 reporter cells (described in more detail below) were infected with an infectious retroviral library of random peptide 20-mers (prepared as described in WO 97/27213; see also WO 01/34806 at page 39, line 36 through page 40, line 19). The retroviral vector used includes a gene encoding blue fluorescent protein (BFP) fused upstream of the region encoding the random peptide via a linker region encoding an α-helical peptide linker (expression fusion product is referred to as “BFP-peptide”). Expression of the BFP-peptide product is controlled by a promoter sensitive to the tetracyline-regulated transactivator such that expression of the BFP-peptide regulated by tetracycline (Tet) or doxycycline (Dox). […]
Following infection, the library was enriched for cells expressing peptides that inhibit IL-4 induced ε transcription as generally outlined in the top half of FIG. 3 and sorted by FACS into single cell clones. […] After 5 days, both populations were stimulated with IL-4 (final conc. 60 U/mL; PeptroTech, Inc.) and, after 3 more days, both populations were analyzed by FACS to measure BFP and GFP fluorescence. […]

[3] = tested on: ST486 endogenous α promoter; assay: TAQMAN assay of endogenous germline α promoter transcription in TGF-β stimulated ST486 cells; type: cell-based; conditions: TGF-β 40 ng/ml, average of 3 values, p=0.6867
Method: The ability of peptide CL06wt to inhibit transcription of an endogenous germline ε promoter was confirmed using a TAQMAN® assay (Roche Molecular, Alameda, Calif.). Briefly, A5T4 cells were infected with retrovirus capable of expressing peptide CL06wt (prepared as described above). The cells were sorted for BFP^+ to select for infected cells. Infected cells were divided into two populations. One population was exposed to Dox (10 ng/ml). Both populations were stimulated with IL-4 (60 U/ml). After 3 days, the cells were pelleted and the pellets assayed for ε promoter transcription using a TAQMAN assay performed as described in Applied Biosystems Protocol 4310299 (available at http:www.appliedbiosystems.com). The primers and probe, which are specific for the transcription product driven by the A5T4 endogenous ε promoter, were as follows (the probe was labeled at the 5′-end with Fam and at the 3′-end with Tamra):
The assay was similar to that described in the immediately preceding section, except that ST486 cells (ATCC # CRL-1647) engineered to express the tetracycline-regulated transactivator were infected and the infected cells were stimulated with TGF-β (40 ng/ml; Peprotech). The primers and probe, which are specific for the transcription product driven by the ST486 endogenous α promoter, were as follows (the probe was labeled at the 5′-end with Fam and at the 3′-end with Tamra): […]

[4] = molecular target: T2, human retinoid X receptor beta (polypeptide encoded by prey clone CL06-stim-2) (human, UniProt P28702 1-533, limits assumed); assay: cell-based or functional assay
T2 sequence (looked up): T1 sequence (P28702 1-533)

[5] = molecular target: T2, human retinoid X receptor beta …; assay: beta-galactosidase yeast two-hybrid; CL06SY1 is a loss of function (L) mutant, hence category L (loss of interaction) with CL06-stim-2
[6] = molecular target: T2, human retinoid X receptor beta …; assay: beta-galactosidase yeast two-hybrid; CL06LC is a loss of function (L) mutant, hence category L (loss of interaction) with CL06-stim-2
[7] = molecular target: T2, human retinoid X receptor beta …; assay: cell-based or functional assay; remark: listed apart in the source

CC1=C(/C=C/C(C)=C\C=C\C(C)=C\C(=O)O)C(C)(C)CCC1 [Peptide 9-cRA, 9-cis RA]
inhibition of germline ε transcription [1]: inhibited germline ε transcription in a dose-dependent manner

CC1=C(/C=C/C(C)=C/C=C/C(C)=C\C(=O)O)C(C)(C)CCC1 [Peptide 13-cRA, 13-cis-RA]
inhibition of germline ε transcription (germline ε transcription): inhibit both IgE production and germline ε transcription in a dose-dependent manner | inhibition of IgE production (IgE production): inhibit both IgE production and germline ε transcription in a dose-dependent manner | inhibition of germline ε transcription [1]: inhibited germline ε transcription in a dose-dependent manner

CC1=C(/C=C/C(C)=C/C=C/C(C)=C/C(=O)O)C(C)(C)CCC1 [a-tRA, all-trans RA]
inhibition of germline ε transcription (germline ε transcription): inhibit both IgE production and germline ε transcription in a dose-dependent manner | inhibition of IgE production (IgE production): inhibit both IgE production and germline ε transcription in a dose-dependent manner | inhibition of germline ε transcription [1]: inhibited germline ε transcription in a dose-dependent manner

AALCSYAHSYAA [CL06MS, dual alanine mutant of CL06wt]
binding to hRXR-β in yeast two hybrid interaction assay (human RXR-β (hRXR-β)): found to bind | functional category based on reporter ratio [2]: IOF (An increase of function mutant (IOF) shows a >50% increase in reporter function)

MSLCSYAHSYAA [CL06wt, 12-residue peptide identified from a retroviral random peptide library, expressed as BFP-peptide fusion]
binding to hRXR-β in yeast two hybrid interaction assay (human RXR-β (hRXR-β)): found to bind | endogenous a inhibition ratio [3]: 0.93

B1: peptide CL06MS (AALCSYAHSYAA) (peptide)
peptide: AALCSYAHSYAA
Reporter Ratio (A5T4 reporter line, IL-4 induced germline ε transcription) [4]: 1.56

B2: peptide CL06SY1 (MSLCAAAHSYAA) (peptide)
peptide: MSLCAAAHSYAA
notes: Dual alanine mutant of CL06wt (first S, Y to A, A); Yeast two-hybrid bait fusion and BFP fusion as for CL06wt
binding result [5]: no binding | Reporter Ratio (A5T4 reporter line, IL-4 induced germline ε transcription) [4]: 1.09

B3: peptide CL06LC (MSAASYAHSYAA) (peptide)
peptide: MSAASYAHSYAA
notes: Dual alanine mutant of CL06wt (L, C to A, A); Yeast two-hybrid bait fusion and BFP fusion as for CL06wt
binding result [6]: no binding | Reporter Ratio (A5T4 reporter line, IL-4 induced germline ε transcription) [4]: 1.06

B4: peptide CL06wt (MSLCSYAHSYAA) (peptide)
peptide: MSLCSYAHSYAA
endogenous ε inhibition ratio (TAQMAN assay, +IL-4/-Dox to +IL-4/+Dox) [7]: 1.37 | Reporter Ratio (A5T4 reporter line, IL-4 induced germline ε transcription) [4]: 1.3
